Source: US20110045101A1, “FUNGICIDAL SUBSTITUTED AZOLES” (E.I. Du Pont De Nemours and Company, priority 2009, published 2011)
Marks after values point to notes of the source that are not given here.

Tests used:
Type in all cases: in vivo
Alternaria solani = test: Test D: tomato early blight, sprayed the day before inoculation, visual disease rating; settings: 100 = 100% disease control; for pest or weed control at 200 ppm: Alternaria solani, 168 h
Method in brief: (§1)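 Plants received a run-off spray at 200 ppm (equivalent to 500 g/ha) or, for starred values, 40 ppm. Formulation used acetone at 3% of volume in a 50/50 acetone/water mix carrying 250 ppm Trem® 014.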

[1] = system: Puccinia recondita f. sp. tritici; test: Test H: wheat leaf rust, test suspension sprayed after inoculation of wheat seedlings, visual disease rating; settings: 100 = 100% disease control; for pest or weed control at 200 ppm: Puccinia recondita, 96 h
Method in brief: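 Wheat seedlings inoculated with P. recondita spores, held 24 h saturated at 20 °C, then 2 days in growth chamber at 20 °C; compound suspension (acetone/water with Trem 014) sprayed to run-off afterwards. Rated visually; 200 ppm (≈500 g/ha) unless marked *, which denotes 40 ppm.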

Septoria tritici = test: Test G: wheat leaf blotch on wheat seedlings, sprayed the day before inoculation, visual disease rating; settings: 100 = 100% disease control; for pest or weed control at 200 ppm: Zymoseptoria tritici, 504 h
Method in brief: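 Visual disease ratings taken 19 days after transfer to a 20° C growth chamber, following 48 h in saturated atmosphere at 24° C. Seedlings had been sprayed to run-off one day before spore inoculation. Dose 200 ppm, or 40 ppm where starred.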

[2] = system: Puccinia recondita f. sp. tritici; test: Test I: wheat leaf rust on wheat seedlings, sprayed the day before inoculation, visual disease rating; settings: 100 = 100% disease control; for pest or weed control at 200 ppm: Puccinia recondita, 168 h
Method in brief: as §1

[3] = system: Erysiphe graminis f. sp. tritici; test: Test J: wheat powdery mildew on wheat seedlings, sprayed the day before inoculation, visual disease rating; settings: 100 = 100% disease control; for pest or weed control at 200 ppm: Blumeria graminis, 168 h
Method in brief: as §1

Septoria nodorum = test: Test F: wheat glume blotch on wheat seedlings, sprayed the day before inoculation, visual disease rating; settings: 100 = 100% disease control; for pest or weed control at 200 ppm: Parastagonospora nodorum, 264 h
Method in brief: as §1

Botrytis cinerea = test: Test C: tomato Botrytis on tomato seedlings, sprayed the day before inoculation, visual disease rating; settings: 100 = 100% disease control; for pest or weed control at 200 ppm: Botrytis cinerea, 120 h
Method in brief: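 Rate: 200 ppm sprayed to run-off, corresponding to 500 g/ha; flagged values used 40 ppm. Vehicle was aqueous acetone (1:1) plus 250 ppm surfactant, compounds predissolved in acetone at 3% of volume. Plants were tomato seedlings.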

[4] = 200 ppm, 0 = no control relative to controls
[5] = 40 ppm (marked *), 0 = no control

| SMILES | Test D disease control rating (Alternaria solani; [4]) [%] | Test H disease control rating [1, 4] [%] | Test G disease control rating (Septoria tritici; [4]) [%] | Test I disease control rating [2, 4] [%] | Test J disease control rating [3, 4] [%] | Test F disease control rating (Septoria nodorum; [4]) [%] | Test C disease control rating (Botrytis cinerea; [4]) [%] | other results |
| --- | --- | --- | --- | --- | --- | --- | --- | --- |
| COc1ccc(F)c(-c2c(Cl)nc(Br)n2-c2ccc(Cl)cc2)c1Cl [compound 501] | 99 | 0 | 95 | 67 | 99 | 98 | 98 | – |
| COc1cc(F)c(-c2c(Cl)nc(Br)n2-c2ccc(C)c(I)c2)c(F)c1 [compound 655] | – | – | – | – | – | – | – | Test D disease control rating (Alternaria solani; 40 ppm (marked *)): 0* %; Test H disease control rating ([1]; 40 ppm (marked *)): 49* %; Test G disease control rating (Septoria tritici; 40 ppm (marked *)): 97* %; Test I disease control rating ([2]; 40 ppm (marked *)): 9* %; Test J disease control rating ([3]; 40 ppm (marked *)): 0* %; Test F disease control rating (Septoria nodorum; 40 ppm (marked *)): 0* %; Test C disease control rating (Botrytis cinerea; 40 ppm (marked *)): 8* % |
| COc1ccc(F)c(-c2c(Cl)nc(Cl)n2-c2ccc(F)cc2)c1F [compound 390] | 100 | 18 | 95 | 100 | 100 | 99 | 100 | – |
| Cc1nc(C)n(-c2ccc(Cl)c(F)c2)c1-c1c(F)ccc(F)c1F [compound 415] | – | – | – | – | – | – | – | Test D disease control rating (Alternaria solani; [5]): 100* %; Test H disease control rating [1, 5]: 0* %; Test G disease control rating (Septoria tritici; [5]): 99* %; Test I disease control rating [2, 5]: 94* %; Test J disease control rating [3, 5]: 98* %; Test F disease control rating (Septoria nodorum; [5]): 0* %; Test C disease control rating (Botrytis cinerea; [5]): 100* % |
| COc1ccc(F)c(-c2c(Cl)nc(Cl)n2-c2ccc(Cl)cc2)c1Cl [compound 481] | 100 | 0 | 95 | 97 | 100 | 99 | 100 | – |
| COc1cc(F)c(-c2c(Cl)nc(C)n2Cc2ccc(Cl)cc2)c(F)c1 [compound 287] | – | – | – | – | – | – | – | Test D disease control rating (Alternaria solani; 200 ppm, 0 = no control): 100%; Test H disease control rating ([1]; 200 ppm, 0 = no control): 17%; Test G disease control rating (Septoria tritici; 200 ppm, 0 = no control): 95%; Test I disease control rating ([2]; 200 ppm, 0 = no control): 100%; Test J disease control rating ([3]; 200 ppm, 0 = no control): 99%; Test F disease control rating (Septoria nodorum; 200 ppm, 0 = no control): 99%; Test C disease control rating (Botrytis cinerea; 200 ppm, 0 = no control): 100% |
| COc1cc(F)c(-c2c(Cl)nc(Br)n2-c2cccc(Cl)c2)c(F)c1 [compound 483] | 99 | 32 | 94 | 98 | 100 | 0 | 100 | – |
| Cc1ncc(Cc2ccc(F)cc2F)n1-c1ccc(Cl)cc1 [compound 403] | 0 | 0 | 97 | 77 | 86 | 0 | 99 | – |
| COc1cc(F)c(-c2c(Cl)ncn2-c2ccc(F)c(F)c2)c(F)c1 [compound 498] | 100 | 0 | 95 | 100 | 100 | 95 | 99 | – |
| Cc1ccc(-n2c(C)nc(Cl)c2-c2c(F)cc(O)cc2F)cc1 [Compound 624, 4-[4-chloro-2-methyl-1-(4-methylphenyl)-1H-imidazol-5-yl]-3,5-difluorophenol] | – | – | – | – | – | – | – | pest or weed control at 200 ppm (Alternaria solani; [4]): 64%; pest or weed control at 200 ppm [1, 4]: 0%; pest or weed control at 200 ppm (Septoria tritici; [4]): 94%; pest or weed control at 200 ppm [2, 4]: 99%; pest or weed control at 200 ppm [3, 4]: 90%; pest or weed control at 200 ppm (Septoria nodorum; [4]): 0%; pest or weed control at 200 ppm (Botrytis cinerea; [4]): 99% |
| Cc1nc(Br)c(Cc2c(F)cc(F)cc2F)n1-c1cc(Cl)cc(Cl)c1 [compound 541] | 0 | 0 | 0 | 0 | 0 | 0 | 0 | – |
| Cc1nc(Cl)n(-c2ccc(Cl)c(F)c2)c1-c1scnc1Cl [compound 380] | 91 | 0 | 91 | 99 | 99 | 0 | 100 | – |
| Fc1cc(F)c(-c2c(Cl)nc(Br)n2-c2ccc(OC(F)(F)F)cc2)c(F)c1 [compound 606] | 100 | 0 | 99 | 28 | 100 | 0 | 99 | – |
| COc1cc(F)c(-c2c(Cl)nc(C=O)n2-c2ccc(F)cc2)c(F)c1 [Compound 276, 4-chloro-5-(2,6-difluoro-4-methoxyphenyl)-1-(4-fluorophenyl)-1H-imidazole-2-carboxaldehyde] | – | – | – | – | – | – | – | pest or weed control at 200 ppm (Alternaria solani; 200 ppm, 0 = no control): 100%; pest or weed control at 200 ppm ([1]; 200 ppm, 0 = no control): 9%; pest or weed control at 200 ppm (Septoria tritici; 200 ppm, 0 = no control): 92%; pest or weed control at 200 ppm ([2]; 200 ppm, 0 = no control): 98%; pest or weed control at 200 ppm ([3]; 200 ppm, 0 = no control): 100%; pest or weed control at 200 ppm (Septoria nodorum; 200 ppm, 0 = no control): 0%; pest or weed control at 200 ppm (Botrytis cinerea; 200 ppm, 0 = no control): 100% |
| COc1cc(F)c(-c2c(Cl)nc(Cl)n2-c2cccnc2C)c(F)c1 [compound 675] | 100 | 100 | 98 | 100 | 100 | 99 | 100 | – |
| COc1cc(F)c(-c2c(Br)nnn2-c2ccc(Cl)cc2)c(F)c1 [compound 627] | 99 | 40 | 99 | 95 | 98 | 0 | 99 | – |
| Fc1cc(-n2c(Cl)nc(CCl)c2-c2cccnc2Cl)ccc1Cl [compound 359] | 0 | 0 | 35 | 80 | 0 | 0 | 98 | – |
| COc1ccc(F)c(-c2c(Cl)ncn2-c2ccc(C#N)cc2)c1F [compound 527] | 99 | 37 | 95 | 91 | 88 | 0 | 100 | – |
| Fc1cc(-n2c(Cl)nc(Cl)c2-c2cncc(Br)c2)ccc1Cl [compound 486] | 0 | 0 | 0 | 14 | 0 | 0 | 66 | – |
| Cc1nc(Br)c(-c2c(F)cccc2F)n1-c1ccc2c(c1)OCCO2 [compound 602] | – | – | – | – | – | – | – | Test D disease control rating (Alternaria solani; 40 ppm (marked *)): 91* %; Test H disease control rating ([1]; 40 ppm (marked *)): 0* %; Test G disease control rating (Septoria tritici; 40 ppm (marked *)): 99* %; Test I disease control rating ([2]; 40 ppm (marked *)): 98* %; Test J disease control rating ([3]; 40 ppm (marked *)): 81* %; Test F disease control rating (Septoria nodorum; 40 ppm (marked *)): 0* %; Test C disease control rating (Botrytis cinerea; 40 ppm (marked *)): 99* % |
| Cc1nc(Cl)n(-c2ccc(Cl)c(F)c2)c1-c1cncc(Br)c1 [compound 356] | 57 | 17 | 72 | 0 | 0 | 0 | 98 | – |
